Where a name gives a salt, the structure may show the parent alone. Read-outs that look alike come from different tables or passages of the source.
What was measured:
[1] = test system: spontaneously hypertensive rats (SHR); assay: antihypertensive evaluation, systolic blood pressure, single oral dose, conscious SHR (tail cuff); assay type: in vivo
Experimental: (§1) The percent recovery is calculated by dividing the maximum decrease in mean arterial blood pressure (mm Hg) caused by tilt into the amount of rise in blood pressure at 15 seconds after initiating tilt. The antihypertensive as well as teh alpha1 -adrenergic blocking properties of the novel quinazolinedione piperazines were evaluated and set forth in Table 2.
The antihypertensive evaluation followed the following procedure:
Adult male spontaneously hypertensive rats (SHR) were placed in restrainers in a chamber warmed to 32° C. A standard indirect method employing a pneumatic pulse transducer and inflatable tail cuff was used to measure systolic blood pressure (SBP) in the conscious state. After baseline SBP were recorded, groups of 4 SHR received a single oral dose of drug or vehicle (0.5% methylcellulose) administered with a gavage tube. SBP's were obtained at 1/2, 1, 2, 3 and 4 hours post treatment. Changes in SBP's were statistically compared to the vehicle effect using Students t test, at p ε0.05.

α1 -adrenergic = α1 -adrenergic blockade: inhibition of phenylephrine-induced increases in diastolic blood pressure in the anesthetized dog; assay type: in vivo; conditions: for Percent Inhibition of Phenylephrin-Induced Pressor Responses: dog
Experimental: The α1 -adrenergic blockade: inhibition of phenylephrine-inducedincreases in diastolic blood pressure in the anesthetized dog was determined according to the method set forth in the following literature reference:
Arunlakshana, O, and Schild, H. O. (1959). Some Quantitative Uses of Drug Antagonists. Br. J. Pharmac. Chemother., 14:48-58.
The procedure is as follows:
Dogs are anesthetized and bilaterally vagotomized. A femoral artery and vein are cannulated for detection of diastolic blood pressure and drug administration, respectively. Percent inhibition of alpha adrenergic receptor antagonism is quantitiated by determining the dose-response (increase in diastolic pressure) relationship of phenylephrine before and after various doses of the antagonist. Statistical analysis of percent inhibition is calculated by use of the variance component estimation test. In addition, the Dose Ratio (DR20) may be calculated for potency comparisons and is defined as the dose of antagonist required to produce an agonist dose ratio of 20.

histamine = assay: autonomic tests: histamine blood pressure responses; assay type: in vivo; conditions: dogs
acetylcholine = assay: autonomic tests: acetylcholine blood pressure responses; assay type: in vivo; conditions: dogs
[2] = test system: tilt reflex recovery response; set-up: species or system mongrel dogs; conditions: dog, in vivo
Experimental: as §1, with “The tilt reflex recovery response is determined as follows: Adult mongrel dogs of either sex are anesthetized with pentobarbital sodium, secured to a tilt table and surgically prepared for measurement of blood pressure and heart rate. Animals are tilted and the percent recovery of the tilt response in the blood pressure is quantitated. The percent” for “The percent”

[3] = bioavailability comparison, MABP in conscious cannulated SHR (i.v. and oral); assay type: in vivo, spontaneously hypertensive rats (SHR); conditions: rat, in vivo; SHR; small numbers (close to unity) indicate good bioavailability; read-out: Ratio P.O./I.V. (bioavailability ratio)
Experimental: (§2) The bioavailability comparison was determined in conscious direct cannulated spontaneously hypertensive rats. Briefly, the SHRs were anesthetized with ether and a carotid arterial catheter was inserted for measurement of arterial blood pressure while a jugular catheter was inserted for i.v. drug administration. For oral dosing, a catheter was also passed via the esophagus into the stomach. All catheters were exteriorized at the nape of the neck and animals were placed in restrainers and allowed to recover from surgery. Blood pressure was continuously recorded. Drugs were dissolved in 5% dextrose in water and administered as a bolus at time zero. Bioavailability results are presented in Table 3. | (a) I.V. bolus dose that lowers MABP in conscious SHR by 10%. | (b) Oral gavage dose that lowers MABP in conscious cannulated SHR by 10%. | (c) Bioavailability ratio with small numbers (close to unity) indicating | good bioavailability.

[4] = test system: spontaneously hypertensive rats; assay: as above; assay type: in vivo, spontaneously hypertensive rats (SHR); conditions: for ED10: Rattus norvegicus
Experimental: as §2

[5] = iv, conscious SHR, I.V. bolus, read-out: I.V. E.D.-10% (I.V. bolus dose that lowers MABP by 10%)
[6] = conscious cannulated SHR, oral gavage, read-out: P.O. E.D.-10% (oral gavage dose that lowers MABP by 10%)

inhibition of the tilt reflex recovery response [2]	SMILES	Peak Change in Systolic Blood Pressure ([1]; 0.5 mg/kg PO)	antihistaminic effect (inhibition of histamine blood pressure responses) (histamine)	anticholinergic effect (inhibition of acetylcholine blood pressure responses) (acetylcholine)	Peak Change in Systolic Blood Pressure ([1]; 0.1 mg/kg PO)	selectivity ratio [3]	ED10 [4, 5]	ED10 [4, 6]	further results
	COc1ccccc1N1CCN(CCn2c(=O)[nH]c3c(Cl)cc(OC)c(OC)c3c2=O)CC1 [B, 8-chloro-3-{2-[4-(2-methoxyphenyl)-1-piperazinyl]ethyl}-5,6-dimethoxyquinazolin-2,4-(1H,3H)-dione]								Peak Change in Systolic Blood Pressure ([1]; 10 mg/kg PO): -72 mm Hg; Percent Inhibition of Phenylephrin-Induced Pressor Responses (α1 -adrenergic; 0.03 mg/kg IV): 60%; Percent Inhibition of Phenylephrin-Induced Pressor Responses (α1 -adrenergic; 0.2 mg/kg IV): 93%
	COc1cc2[nH]c(=O)n(CCN3CCN(c4ccccc4OC)CC3)c(=O)c2cc1OC [C, 6,7-dimethoxy-3-{2-[4-(2-methoxyphenyl)-1-piperazinyl]ethyl}-quinazolin-2,4-(1H,3H)dione]	-69 mm Hg							Percent Inhibition of Phenylephrin-Induced Pressor Responses (α1 -adrenergic; 0.1 mg/kg IV): 95%
37%±12	COc1ccccc1N1CCN(CCn2c(=O)[nH]c3ccc(OC)c(OC)c3c2=O)CC1 [Compound A, 3-{2-[4-(2-Methoxyphenyl)-1-piperazinyl]ethyl}-5,6-dimethoxyquinazolin-2,4-(1H,3H)dione monohydrobromide]	-85 mm Hg	almost no antihistaminic or anticholinergic effect	almost no antihistaminic or anticholinergic effect	-58 mm Hg	38.9	1.8 mg/kg	70 mg/kg	oral hypotensive / antihypertensive activity (in words) ([1]; oral): orally effective antihypertensive profile; bioavailability profile (in words) ([4]; oral/i.v. ratios compared with prior art): unexpected superior bioavailability; DR20 (dose of antagonist required to produce an agonist dose ratio of 20) (α1 -adrenergic; anesthetized dog, IV, phenylephrine): 0.0203 mg/kg; Percent Inhibition of Phenylephrin-Induced Pressor Responses (α1 -adrenergic; 0.0203 (DR20) mg/kg IV): 100%
83%±8	COc1ccccc1N1CCN(CCn2c(=O)[nH]c3ccccc3c2=O)CC1 [Compound Z, reference compound]		inhibits histamine and acetylcholine blood pressure responses	inhibits histamine and acetylcholine blood pressure responses	-40 mm Hg	740	0.5 mg/kg	370 mg/kg	Percent Inhibition of Phenylephrin-Induced Pressor Responses (α1 -adrenergic; 0.010 mg/kg IV): 100%
	Br.COc1ccccc1N1CCN(CCn2c(=O)[nH]c3ccc(O)c(O)c3c2=O)CC1.O [D, 5,6-Dihydroxy-3-{2-[4-(2-methoxyphenyl)-1-piperazinyl]ethyl}-quinazolin-2,4(1H,3H)-dione monohydrobromide monohydrate]				-60 mm Hg				Peak Change in Systolic Blood Pressure ([1]; 0.05 mg/kg PO): -58 mm Hg; Percent Inhibition of Phenylephrin-Induced Pressor Responses (α1 -adrenergic; 0.0303 mg/kg IV): 89%
	COc1ccc(N2CCN(CCn3c(=O)[nH]c4ccc(OC)c(OC)c4c3=O)CC2)cc1 [E]								Peak Change in Systolic Blood Pressure ([1]; 20 mg/kg PO): -50 mm Hg; Percent Inhibition of Phenylephrin-Induced Pressor Responses (α1 -adrenergic; 1.0 mg/kg IV): 80%

From patent US4711883A, “Substituted 3-(4-phenyl-1-piperazinyl)alkylquinazolin-2,4-(1H,3H) diones, methods of preparation, compositions and method of use” (Ortho Pharmaceutical Corporation, priority 1985, dated 1987)
